In patent US7759382B2, “Acylated amino acid amidyl pyrazoles and related compounds” (Elan Pharmaceuticals, Inc., priority 2003, dated 2010):

System: β-amyloid peptide release and/or its synthesis
Test: inhibition of β-amyloid peptide release and/or its synthesis (test not specified)
Assay type: cell-based
Settings: statement in words only; no assay or value given

SMILES | inhibits β-amyloid peptide release and/or its synthesis
CC(C)(C)c1cc(NC(=O)c2cccc(N(C=O)Cc3cc(F)cc(F)c3)c2)[nH]n1 [Example 110] | inhibits β-amyloid peptide release and/or its synthesis
CC(C)(C)c1cc(NC(=O)c2cccc(Nc3cc(F)cc(F)c3)c2)[nH]n1 [Example 111, N-(5-tert-Butyl-2H-pyrazol-3-yl)-3-(3,5-difluoro-phenylamino)-benzamide] | inhibits β-amyloid peptide release and/or its synthesis
